Experimental findings from ChEMBL document CHEMBL5154692, “Synthesis of novel thiazolyl hydrazone derivatives as potent dual monoamine oxidase-aromatase inhibitors” (Eur J Med Chem, 2022) are described below.

Assay [1] has as its target T1, Amine oxidase [flavin-containing] A (Homo sapiens, UniProt P21397).
T1 sequence (P21397 whole entry): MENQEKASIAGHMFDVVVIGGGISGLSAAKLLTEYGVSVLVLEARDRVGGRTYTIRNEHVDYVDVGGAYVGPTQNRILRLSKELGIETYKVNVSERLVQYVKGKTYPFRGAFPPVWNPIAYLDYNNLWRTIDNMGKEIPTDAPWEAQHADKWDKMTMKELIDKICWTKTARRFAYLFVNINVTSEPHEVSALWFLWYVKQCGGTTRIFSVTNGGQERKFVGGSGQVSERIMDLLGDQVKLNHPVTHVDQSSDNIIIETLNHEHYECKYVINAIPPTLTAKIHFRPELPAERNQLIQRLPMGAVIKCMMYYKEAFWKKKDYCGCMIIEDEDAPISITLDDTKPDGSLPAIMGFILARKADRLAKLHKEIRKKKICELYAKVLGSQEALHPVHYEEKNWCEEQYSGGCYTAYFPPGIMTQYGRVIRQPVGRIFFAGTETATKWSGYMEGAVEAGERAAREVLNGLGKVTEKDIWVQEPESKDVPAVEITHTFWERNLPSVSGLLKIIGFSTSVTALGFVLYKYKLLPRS
As to the kind of experiment: Inhibition of MAO-A (unknown origin) at 1 mM relative to control.

Assay [2] addresses T1, Amine oxidase [flavin-containing] A. As to the kind of experiment: Inhibition of MAO-A (unknown origin) at 10 mM relative to control. The arrangement: dose or concentration left out as unconfirmed.
Assay [3] has as its target T2, Amine oxidase [flavin-containing] B (Homo sapiens, UniProt P27338).
T2 sequence (P27338 whole entry): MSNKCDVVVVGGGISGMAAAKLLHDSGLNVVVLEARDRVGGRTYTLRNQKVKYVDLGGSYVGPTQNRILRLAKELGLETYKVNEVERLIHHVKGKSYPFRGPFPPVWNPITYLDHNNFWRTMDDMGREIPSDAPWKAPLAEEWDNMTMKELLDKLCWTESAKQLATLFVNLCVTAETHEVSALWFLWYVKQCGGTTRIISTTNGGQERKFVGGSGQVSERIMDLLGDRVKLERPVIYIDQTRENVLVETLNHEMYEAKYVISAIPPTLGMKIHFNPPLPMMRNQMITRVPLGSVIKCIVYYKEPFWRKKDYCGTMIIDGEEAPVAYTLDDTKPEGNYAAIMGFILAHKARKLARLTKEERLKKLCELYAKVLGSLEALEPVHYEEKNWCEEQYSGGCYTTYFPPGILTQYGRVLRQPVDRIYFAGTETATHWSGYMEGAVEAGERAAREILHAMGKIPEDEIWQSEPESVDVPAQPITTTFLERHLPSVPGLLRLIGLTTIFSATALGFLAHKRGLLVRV
As to the kind of experiment: Inhibition of MAO-B (unknown origin).

Another assay deals with T3, Aromatase (Homo sapiens, UniProt P11511).
T3 sequence (P11511 whole entry): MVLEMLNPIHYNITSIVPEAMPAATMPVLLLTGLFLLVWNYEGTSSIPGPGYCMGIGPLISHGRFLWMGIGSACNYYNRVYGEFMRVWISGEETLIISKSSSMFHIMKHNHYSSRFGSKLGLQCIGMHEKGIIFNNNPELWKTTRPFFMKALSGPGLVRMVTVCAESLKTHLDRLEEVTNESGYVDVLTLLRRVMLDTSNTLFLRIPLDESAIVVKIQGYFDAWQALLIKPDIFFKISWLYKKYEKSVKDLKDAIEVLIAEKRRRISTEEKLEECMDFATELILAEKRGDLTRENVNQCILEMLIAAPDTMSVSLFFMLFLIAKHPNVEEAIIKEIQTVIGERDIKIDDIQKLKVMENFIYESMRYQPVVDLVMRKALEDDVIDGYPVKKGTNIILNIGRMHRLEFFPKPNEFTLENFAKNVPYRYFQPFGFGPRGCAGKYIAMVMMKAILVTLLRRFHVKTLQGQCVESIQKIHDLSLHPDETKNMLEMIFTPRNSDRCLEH
As to the kind of experiment: Inhibition of aromatase (unknown origin).

Assay [4] deals with T1, Amine oxidase [flavin-containing] A. As to the kind of experiment: Inhibition of MAO-A (unknown origin).

One may read the inhibition as the share of the control response that was lost under treatment. In assay [1], `COc1ccc(-c2csc(N/N=C/c3ccc4cc(OC)ccc4c3)n2)cc1` registered an inhibition at 1000 µM of 50%. Moreover, the inhibition in assay [2] was found to be 28.1%.
In the case of `COc1ccc2cc(/C=N/Nc3nc(-c4ccc(F)cc4)cs3)ccc2c1`, in assay [1], 1000 µM produced 52.2% inhibition. For the same compound, the inhibition in assay [2] was 35.5%.
Compound `COc1ccc2cc(/C=N/Nc3nc(-c4ccc(C)cc4)cs3)ccc2c1` gave an inhibition at 1000 µM in assay [1] of 49.8%. In assay [2], this compound had an inhibition of 31.1%.
For orientation: IC50 means the concentration that gives 50% inhibition. As for `CCOC(=O)Cc1csc(N/N=C/c2ccc3cc(OC)ccc3c2)n1`, 1000 µM produced 60.2% inhibition in assay [1]. This compound had an inhibition in assay [2] of 30.2%. The IC50 in assay [3] was determined as 39 nM; on Aromatase, 31 nM.
In assay [1], `COc1ccc2cc(/C=N/Nc3nc(-c4ccccc4)c(C)s3)ccc2c1` had an inhibition at 1000 µM of 90.9%. In assay [2], this compound yielded an inhibition of 82.3%. The compound further had an IC50 in assay [4] of 72 nM.
On to `COc1ccc2cc(/C=N/NC3=NC(=O)CS3)ccc2c1`, for which the inhibition at 1000 µM in assay [1] turned out to be 55.8%. The inhibition in assay [2] came to 33.9%. 42 nM corresponded to half-maximal inhibition at Aromatase (IC50).
In turn, `COc1ccc2cc(/C=N/Nc3nc(-c4cccc([N+](=O)[O-])c4)cs3)ccc2c1` had an inhibition at 1000 µM in assay [1] of 90.5%. Besides, the inhibition in assay [2] stood at 84.1%. Also, the results for the IC50 in assay [4] and in assay [3] were 68 nM and 46 nM, respectively.
Turning to `COc1ccc2cc(/C=N/Nc3nc(-c4ccc5ccccc5c4)cs3)ccc2c1`, in assay [1], the inhibition at 1000 µM was 55.9%. In assay [2], this compound showed an inhibition of 35.7%.
Turning to `COc1ccc2cc(/C=N/Nc3nc(-c4ccc(Cl)cc4)cs3)ccc2c1`, 1000 µM produced 48.4% inhibition in assay [1]. Also, the inhibition in assay [2] stood at 28.8%.
In assay [1], `COc1ccc2cc(/C=N/Nc3nc(-c4ccc(-c5ccccc5)cc4)cs3)ccc2c1` gave an inhibition at 1000 µM of 59.2%. In assay [2], this compound showed an inhibition of 34.2%.
On the same counts, the results for `COc1ccc2cc(/C=N/Nc3nc(-c4cccc(Cl)c4)cs3)ccc2c1` are 48.4% and 39.9%.
As for `COc1ccc2cc(/C=N/Nc3nc(-c4ccc(S(C)(=O)=O)cc4)cs3)ccc2c1`, testing at 1000 µM in assay [1] gave an inhibition of 53.5%. The inhibition in assay [2] stood at 37%.
In turn, `COc1ccc2cc(/C=N/Nc3nc(-c4ccccc4)cs3)ccc2c1` had an inhibition at 1000 µM in assay [1] of 51.4%. The same compound gave an inhibition in assay [2] of 26.6%.
In the same order, the values of `COc1ccc2cc(/C=N/Nc3nc(-c4ccc(Cl)c(Cl)c4)cs3)ccc2c1` are 47.7% and 32.5%.
Compound `COc1ccc2cc(/C=N/Nc3nc(-c4ccc([N+](=O)[O-])cc4)cs3)ccc2c1` returned an inhibition at 1000 µM in assay [1] of 57.8%. This compound returned an inhibition in assay [2] of 33.4%. The midpoint of inhibition in assay [3], the IC50, lay at 82 nM.
For `COc1ccc2cc(/C=N/Nc3nc(-c4cccc(F)c4)cs3)ccc2c1`, in assay [1], the inhibition at 1000 µM worked out at 59.4%. In addition, in assay [2], the inhibition is 32.1%.
On the same counts, the results for `CCOC(=O)c1sc(N/N=C/c2ccc3cc(OC)ccc3c2)nc1C` are 58.2% and 29.3%.
The compound `COc1ccc2cc(/C=N/Nc3nc(-c4ccc(C#N)cc4)cs3)ccc2c1` showed an inhibition at 1000 µM in assay [1] of 58.7%. In assay [2], this compound displayed an inhibition of 30.4%.
In assay [1], `COc1cccc(-c2csc(N/N=C/c3ccc4cc(OC)ccc4c3)n2)c1` returned an inhibition at 1000 µM of 56.7%. In addition, in assay [2], the inhibition was determined as 21.9%.
With `COc1ccc2cc(/C=N/Nc3nc(-c4cc5ccccc5o4)cs3)ccc2c1`, the inhibition at 1000 µM in assay [1] worked out at 58.4%. The same compound yielded an inhibition in assay [2] of 27.7%.
For the compound `COc1ccc2cc(/C=N/Nc3nc(C)c(C)s3)ccc2c1`, the inhibition at 1000 µM in assay [1] is 54.4%. The same compound gave an inhibition in assay [2] of 30.9%.
